The source of these data is US7985774B2, “Use of 3,5-seco-4-nor-cholestane derivatives for obtaining a cytoprotective drug” (Trophos, priority 2006, dated 2011).

One test deals with C57BL6 mice. Briefly: In vivo model of myocardium infarction (coronary occlusion-reperfusion). On the procedure:
The purpose of this experiment is to study in vivo the cardioprotective properties of the compounds, 3,5-seco-4-nor-cholestan-5-one oxime-3-ol and 3,5-seco-4-nor-cholestan-5-one oxime-3-N,N-dimethylglycine ester, in a murine coronary occlusion-reperfusion model.
The compounds to be tested are administered intravenously in mice, 5 minutes before reperfusion of the myocardium ischemiated beforehand. As controls, carriers of the compounds beta-cyclodextrin (hereafter called βCD) and water, respectively, are administered under the same conditions as for the compounds.
In order to determine the effect of the tested compounds, the size of the infarction is measured after 24 hour reperfusion.
6-8 week old male C57BL6 mice are anaesthetized with sodium pentobarbital (50 mg/kg i.p.) and are ventilated after intubation with an O2/CO2 (95%/5%) mixture throughout the experiment. The surface electrocardiogram (ECG) is recorded and viewed on an oscilloscope all along surgery. Under strict asepsis conditions, the jugular vein is catheterized for intravenous administration of the compounds. A left lateral thoracotomy is performed and after pericardiotomy, a major branch of the left coronary artery is localized in the latero-posterior region of the left ventricle. A prolene no. 8 suture is positioned around this artery so as to form a mobile loop for making a temporary coronary occlusion.
All the mice were subject to a 30 minute temporary coronary occlusion. Ischemia of the myocardium region is confirmed by cyanosis of the myocardium surface and a deviation of the ST segment of the electrocardiogram.
Each of the compounds (treated group, n=10) or its solvent (control group, n=10) was administered as a bolus intravenously, 5 min before lifting the 30 minutes of coronary occlusion.
3,5-seco-4-nor-cholestan-5-one oxime-3-ol, dissolved beforehand to a final concentration of 0.46 mg/ml in a 30% βCD solution in phosphate buffer prepared by saturation followed by centrifugation, is administered at a dosage of 1 mg/kg.
3,5-seco-4-nor-cholestan-5-one oxime-3-N,N-dimethylglycine ester, dissolved beforehand to a final concentration of 1.56 mg/ml in sterile water by stirring and sonication, is administered at a dosage of 3.9 mg/kg.
The same volume of carrier is administered in the corresponding control groups.
Twenty four hours after the end of coronary occlusion, the mice are re-anaesthetized with sodium pentobarbital (50 mg/kg i.p.) and heparin is administered intravenously (Choay© heparin 1,000 IU/kg). A ligature of the coronary artery is achieved at the same location having been subject to the first occlusion 24 h previously. The mice are then euthanized with a lethal saturated dose of potassium chloride and their heart is rapidly excised and then mounted through the aorta artery on a retrograde perfusion system of the Langendorff type.
A 5% Evans blue solution is perfused retrogradely so that the healthy myocardium is colored in blue; the area made ischemic during the coronary occlusion, or <<area of risk AR>> remaining uncolored by default.
The left ventricle is then cut out into 5 slices with equal thicknesses (1 mm) by means of a slicer specially designed for hearts of mice (Les Isolants de Paris, Palaiseau), which are then weighed.
These slices are incubated in a 1% triphenyltetrazolium chloride solution (TTC, Sigma, Poole, UK) at pH 7.4 for 20 min at 37° C. and then set in 4% formol. TTC has the property of coloring the non-infarcted myocardium in red, and so showing the infarcted areas in white. Each heart slice is placed under a stereo microscope for taking a high definition digital photograph.
Quantification of infarction and the area of risk is carried out by planimetry (Scion Image, Scion, Frederick Md., USA) and referred to the weight of each slice.
The area of risk (non-blue area) is expressed as a percentage of the weight of the left ventricle. The infarction sizes are expressed as a percentage of the weight of the area of risk. […]

A further test has as its system CD1 mice. The test is described as follows: Acute hepatotoxicity: lethal intoxication by the Jo2 antibody (survival). The class given is in vivo. Conditions: for Survival rate: 24 hrs. On the procedure: Male adult CD1 mice from the breeder “Elevage Janvier”, (Le Genest-Saint-Isle, France) were used. The animals were identified individually and had free access to water and food.
A stock solution of monoclonal hamster anti-mouse CD95 (Fas) antibody, called Jo2, from Pharmingen (BD Biosciences, ref. 554254 batch 32699) is prepared at a concentration of 1 mg/mL in water. The dilutions used are made in 0.9% sodium chloride in water.
The desired amount of 3,5-seco-4-nor-cholestan-5-one oxime-3-ol is weighed and milled into a fine powder, and then mixed with Cremophore EL (Sigma C5135) and absolute ethanol (Carlo Erba RPE 41571) (5% and 10% of the final volume, respectively). After complete dissolution, 0.9% sodium chloride in water is added extemporaneously (85% of the final volume).
In this experiment, the effect of 3,5-seco-4-nor-cholestan-5-one oxime-3-ol on the survival of animals after administering a lethal dose of the Jo2 antibody is evaluated.
The Jo2 antibody is administered by intraperitoneal injection at a dose of 200 ou 250 μg/kg in a volume of 5 mL/kg of body weight.
3,5-seco-4-nor-cholestan-5-one oxime-3-ol is tested at 10 and 30 mg/kg, as a pretreatment, 1 hr before administering Jo2 or as a post-treatment, 1 hr after administering Jo2.
A control is obtained with animals receiving pretreatment by intraperitoneal administration, 1 hr before or 1 hr after administering the antibody, of an identical volume of solution having been used for preparing the compound to be tested, without the compound.

The mark [1] stands for this setting: 1 mg/kg i.v. bolus in βCD 5 min before reperfusion, 30 min occlusion, 24 h reperfusion, mean±SEM.

For the molecule `CC(C)CCC[C@@H](C)[C@H]1CC[C@H]2[C@@H]3CC/C(=N\O)[C@](C)(CCCO)[C@H]3CC[C@]12C` [3,5-seco-4-nor-cholestan-5-one oxime-3-ol], in the test on C57BL6 mice (setting [1]), the “Area of risk (percentage of the weight of the left ventricle)” value is 9 +/− 4%. Further, the “Infarction size (percentage of the weight of the area of risk)” value in the test with C57BL6 mice (setting [1]) is given as 21 +/− 7%. Also, in the test on C57BL6 mice (1 mg/kg i.v., versus carrier (βCD)), the Infarction size reduction amounted to 36.4%. The Survival rate in the test with CD1 mice (Experience 5: Jo2 200 μg/kg, 10 mg/kg post-treatment, control 30) was 60%; with CD1 mice (Experience 6: Jo2 200 μg/kg, 30 mg/kg post-treatment, control 20) it was 60%; with CD1 mice (Experiment 1: Jo2 250 μg/kg, 10 mg/kg pretreatment, control 25), 65%; with CD1 mice (Experiment 2: Jo2 250 μg/kg, 30 mg/kg pretreatment, control 10), 90%; in the test on CD1 mice (Experiment 3: Jo2 250 μg/kg, 10 mg/kg post-treatment, control 10) it was 15%; in the test with CD1 mice (Experiment 4: Jo2 250 μg/kg, 30 mg/kg post-treatment, control 5), 35%. In addition, the “Mortality (24 hrs)/total number of animals” value is on record as 8/20 with CD1 mice (Experience 5: Jo2 200 μg/kg, 10 mg/kg post-treatment, control 14/20); 8/20 in the test with CD1 mice (Experience 6: Jo2 200 μg/kg, 30 mg/kg post-treatment, control 16/20); 7/20 with CD1 mice (Experiment 1: Jo2 250 μg/kg, 10 mg/kg pretreatment, control 15/20); 2/20 in the test on CD1 mice (Experiment 2: Jo2 250 μg/kg, 30 mg/kg pretreatment, control 18/20); 17/20 in the test with CD1 mice (Experiment 3: Jo2 250 μg/kg, 10 mg/kg post-treatment, control 18/20); 13/20 with CD1 mice (Experiment 4: Jo2 250 μg/kg, 30 mg/kg post-treatment, control 19/20).
